Experimental data taken from patent US20240041898A9, “NEUROSTEROIDS AND ENANTIOMERS THEREOF FOR THE PREVENTION AND TREATMENT OF NEURODEGENERATIVE CONDITIONS” (priority 2019, published 2024).
Several values for one entry are separate records, joined by “and”; a condition that tells them apart may be missing. Equal entries are not always repeated.

System: p62
Assay: Ex vivo pressure-loaded retinas, Western blot of p62
Type: cell-based, rat
Conditions: ex vivo, 75 mmHg; for p62 expression (FIG. 2S), individual experiments 1-5: 1 μM, relative units, 10 mmHg = 1.00
Procedure: Rat ex vivo Eyecup Preparation—Rat ex vivo eyecups were prepared from 28-32 day old male Sprague-Dawley rats (Charles River Laboratories International Inc., Wilmington, MA). The anterior half of the enucleated eyes was carefully removed to make eyecup preparations. Eyecups were placed at the bottom of a 100 ml glass beaker filled with aCSF (artificial cerebrospinal fluid) containing (in mM): 124 NaCl, 5 KCl, 2 MgSO4, 2 CaCl2, 1.25 NaH2PO4, 22 NaHCO3, and 10 glucose, and incubated at 30° C. for 24 hours using a closed pressure-loading system (FIG. 1C). pH was maintained at 7.35 to 7.40. In the closed-pressure system, a glass beaker with the eyecup was placed at the bottom of an acrylic pressure chamber (2,000 ml volume). A 95% O2-5% CO2 gas mixture was delivered through disposable plastic tubing with an infusion valve and a control dial on the lid of the pressure chamber and an air filter (Cat #SLGP033RS, Merck Millipore, Billerica, MA). The plastic tubing delivering the gas terminated 1 cm above the bottom of the beaker.
Acutely prepared eyecups were incubated in gassed aCSF for at least 1 h at 30° C. before pressure loading. In some experiments, AlloP (1 μM), ent-AlloP (1 μM), and 3-MA (10 mM) were dissolved in aCSF at the time of experiment and administered by bath perfusion. Eyecup preparations were treated with these drugs for 1 h at 30° C. before pressure loading. For pressure loading, the 95% O2-5% CO2 gas mixture was infused until the pressure reading given by a manometer reached the appropriate level. The pressure was then locked by adjusting the control dial of the effusion valve, and monitored continuously for 24 h at 30° C.
Western Blot Analysis—At the end of each experiment, the posterior segments of the eye were placed on a flat cutting surface and immersed in ice-cold aCSF. With a surgical blade, the retina was carefully and gently detached from the sclera with a fine forceps. The isolated retinas were frozen at −80° C. Retinas were then homogenized in lysis buffer solution (CelLytic MT; Sigma-Aldrich, Inc.) with protease inhibitor cocktail (Sigma-Aldrich, Inc.), prepared according to the manufacturer's instructions. The tissue extracts were ultrasonicated and clarified by centrifugation at 12,000 g for 20 minutes at 4° C. The protein concentrations in supernatants were assayed (Quant-iT assay kit; Invitrogen Corp., Carlsbad, CA). Twenty micrograms of retinal extract were subjected to SDS polyacrylamide gel electrophoretic analysis. The proteins were then transferred to a PVDF. Immunoblots by polyclonal rabbit anti-LC3B antibody (MBL Life Science) or anti-SQSTMl/p62 mouse monoclonal antibody (Abcam) were visualized using WesternBreeze Chemiluminescent Immunodetection system (Invitrogen) with the exposure time to autoradiograph film (MXJB Plus; Kodak, Rochester, NY) adjusted to avoid over- or undersaturation. Precision Plus Protein™ Western Standards (Bio-Rad, Hercules, CA) followed by Precision Protein™ strep Tactin-AP conjugate (Bio-Rad) was used for a molecular marker of LC3. […]
The density of Western blot bands was quantified using Image-Pro Plus software. Quantification was adjusted to protein expression at 10 mmHg after normalization to the β-actin band at each pressure, and the relative gray-scale value was calculated by densitometric analysis of the obtained bands. […] Differences in expression levels were evaluated using Wilcoxon Rank-Sum Test, Tukey's or Dunnett's multiple comparison test. […]

## CC(=O)[C@H]1CC[C@H]2[C@@H]3CC[C@H]4C[C@H](O)CC[C@]4(C)[C@H]3CC[C@]12C [AlloP, allopregnanolone]
Single values
  p62 expression (FIG. 2S), individual experiments 1-5: 1.96 and 2.18 and 2.05 and 0.84 and 2.81

## CC(=O)[C@@H]1CC[C@@H]2[C@H]3CC[C@@H]4C[C@@H](O)CC[C@@]4(C)[C@@H]3CC[C@]21C [ent-AlloP, ent-allopregnanolone]
1 μM ent-AlloP, 10 mM 3-MA, relative, ent-AlloP = 1.00, Average of 4
  p62 expression after 3-MA treatment (FIG. 3H), Average: 1.00
1 μM ent-AlloP, 10 mM 3-MA, relative, ent-AlloP = 1.00, single values
  p62 expression after 3-MA treatment (FIG. 3H), individual experiments 1-4: 1.00
Single values
  p62 expression (FIG. 2S), individual experiments 1-5: 0.92 and 0.40 and 1.00 and 0.28 and 1.08
